Legend:
Format in all cases: functional
[1] = Growth inhibition of human MOLT4 cells assessed as cell growth at 15 ug/ml; details: MOLT-4, read-out: Activity
T47D = assay: Growth inhibition of human T47D cells assessed as cell growth at 15 ug/ml; details: read-out: Activity
[2] = Growth inhibition of human LOXIMVI cells assessed as cell growth at 15 ug/ml; details: LOX IMVI, read-out: Activity
NCI-H522 = assay: Growth inhibition of human NCI-H522 cells assessed as cell growth at 15 ug/ml; details: read-out: Activity

SMILES | growth at 15 µg/mL [1] [%] | growth at 15 µg/mL (T47D) [%] | growth at 15 µg/mL [2] [%] | growth at 15 µg/mL (NCI-H522) [%]
CC(C)OC(=O)[C@H](C)NP(=O)(OC[C@H]1O[C@@H](n2cnc3sc4c(=O)[nH]c(N)nc4c32)C(F)(F)[C@@H]1O)Oc1ccccc1 (some centres not stated) | 94 | 64.5 | 74.1 | 65.6
CC(C)OC(=O)[C@H](C)NP(=O)(OC[C@H]1O[C@@H](n2cnc3sc4c(=O)[nH]c(N)nc4c32)C(F)(F)[C@@H]1OP(=O)(N[C@@H](C)C(=O)OC(C)C)Oc1ccccc1)Oc1ccccc1 (some centres not stated) | 109 | 87.2 | 102 | 77.7
Nc1nc2c(sc3ncn([C@@H]4O[C@H](CO)[C@@H](O)C4(F)F)c32)c(=O)[nH]1 | 13.9 | 10.5 | 25.6 | 34

From ChEMBL document CHEMBL3616401, “Thiophene-expanded guanosine analogues of Gemcitabine” (2015)
